According to US20210215714A1, “COMPLEMENT ALTERNATIVE PATHWAY-ASSOCIATED NEPHROPATHY BIOMARKERS” (Achillion Pharmaceuticals, Inc., priority 2018, published 2021):

System: sC5b-9
Assay: Phase 2a study: urinary sC5b-9 (MicroVue sC5b-9 Enzyme Immunoassay);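 further: urine from C3 glomerulopathy or IC-MPGN patients, sandwich ELISA capturing sC5b-9 via C9-ring monoclonal with HRP detection read at 450 nm, values raw or normalized to creatinine or albumin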
Settings: 200 mg TID
Excerpt: 10 patients with either C3 Glomerulopathy (C3G) or Immune-Complex Membranoproliferative Glomerulonephritis (IC-MPGN) are to be enrolled across two dose groups. […] Inclusion criteria include a clinical diagnosis of C3G (C3 glomerulonephritis [C3GN] or dense deposit disease [DDD], the 2 types of C3G) or idiopathic immune-complex membranoproliferative glomerulonephritis (IC-MPGN) by renal biopsy for at least 3 months prior to dosing, with the pathologic diagnosis verified by review of the renal biopsy by the study central pathologist. Patients must have low C3 levels (<50% of the lower limit of normal) and normal or near-normal C4 levels (>90% of the lower limit of normal).
To measure urinary sC5b-9 production, patient urine samples were tested utilizing the MicroVue sC5b-9 Enzyme Immunoassay for the quantitation of sC5b-9 in urine. […] The samples were tested utilizing the MicroVue sC5b-9 Enzyme Immunoassay for the quantitation of sC5b-9 urine, which is a three-step procedure utilizing a micro-assay plate coated with a mouse monoclonal antibody that binds specifically to the C9 ring of sC5b-9, HRP-conjugated antibodies to antigens of sC5b-9, and a chromogenic substrate. In step 1, standards, controls, and test specimens are added to micro-assay wells pre-coated with an anti-sC5b-9 specific monoclonal antibody. sC5b-9 present in the Standards, Controls, or specimens will bind to the immobilized sC5b-9 monoclonal antibody. After incubation, a wash cycle removes unbound material. […] In step 2, horseradish peroxidase (HRP)-conjugated antibodies to antigens of sC5b-9 are added to each test well. The enzyme conjugated antibodies bind to sC5b-9 that was captured by the monoclonal anti-sC5b-9 bound on the surface of the micro-assay wells. After incubation, a wash cycle removes unbound, excess conjugate. In step 3, a chromogenic enzyme substrate is added to each micro-assay well. The bound HRP-conjugate reacts with the substrate, forming a blue color. After incubation the enzyme reaction is stopped chemically, the color changes to yellow, and the color intensity is measured spectrophotometrically at 450 nm. The color intensity of the reaction mixture is proportional to the concentration of sC5b-9 present in the test specimens, standards, and controls. […] Measurements of urinary biomarkers are typically normalized to urine creatinine or albumin levels to account for variation in biomarker levels due to changes in urinary filtration rate.

With `CC(=O)c1nn(CC(=O)N2C[C@H](F)C[C@H]2C(=O)Nc2cccc(Br)n2)c2ccc(-c3cnc(C)nc3)cc12` [Compound 1, (2S,4R)-1-(2-(3-acetyl-5-(2-methylpyrimidin-5-yl)-1H-indazol-1-yl)acetyl)-N-(6-bromopyridin-2-yl)-4-fluoropyrrolidine-2-carboxamide] the “Urine sC5b-9” value (Patient D, Day 21 Taper) was 44.0 ng/mL, the sC5b-9/ALB (Patient D, Day 21 Taper) was 18 ng/mg and the sC5b-9/Cr (Patient D, Day 21 Taper) was 10.5 µg/mmol. For the same molecule, the “Urine sC5b-9” value (Patient D, Follow-Up Day 24) was 39.9 ng/mL, the sC5b-9/ALB (Patient D, Follow-Up Day 24) was 21 ng/mg and the sC5b-9/Cr (Patient D, Follow-Up Day 24) was 5.9 µg/mmol. For the same molecule, the “Urine sC5b-9” value (Patient D, Follow-Up Day 28) was 57.8 ng/mL, the sC5b-9/ALB (Patient D, Follow-Up Day 28) was 21 ng/mg and the sC5b-9/Cr (Patient D, Follow-Up Day 28) was 12.0 µg/mmol. For the same molecule, the “Urine sC5b-9” value (Patient D, Follow-Up Day 49) was 40.3 ng/mL, the sC5b-9/ALB (Patient D, Follow-Up Day 49) was 16 ng/mg and the sC5b-9/Cr (Patient D, Follow-Up Day 49) was 10.3 µg/mmol. For the same molecule, the “Urine sC5b-9” value (Patient D, Screen) was 148.7 ng/mL, the sC5b-9/ALB (Patient D, Screen) was 34 ng/mg and the sC5b-9/Cr (Patient D, Screen) was 19.6 µg/mmol. For the same molecule, the sC5b-9/ALB (Patient E, Day 1/0 Hour) was 127 ng/mg, the sC5b-9/Cr (Patient E, Day 1/0 Hour) was 54.0 µg/mmol and the “Urine sC5b-9” value (Patient E, Day 1 predose) was 959 ng/mL. The “Urine sC5b-9” value (Patient E, Day 4) was 538 ng/mL, the sC5b-9/ALB (Patient E, Day 4) was 61 ng/mg and the “Urine sC5b-9” value (Patient E, Day 7) was 484 ng/mL. For the same molecule, the sC5b-9/ALB (Patient E, Day 7/0 Hour) was 59 ng/mg, the sC5b-9/Cr (Patient E, Day 7/0 Hour) was 31.5 µg/mmol and the “Urine sC5b-9” value (Patient E, Day 10) was 212 ng/mL. The sC5b-9/ALB (Patient E, Day 10) was 26 ng/mg, the sC5b-9/Cr (Patient E, Day 10) was 16.1 µg/mmol and the “Urine sC5b-9” value (Patient E, Day 14) was 112 ng/mL. The sC5b-9/ALB (Patient E, Day 14) was 19 ng/mg, the sC5b-9/Cr (Patient E, Day 14) was 5.0 µg/mmol and the “Urine sC5b-9” value (Patient E, Day 15 Taper) was 70 ng/mL. The sC5b-9/ALB (Patient E, Day 15 Taper) was 23 ng/mg, the sC5b-9/Cr (Patient E, Day 15 Taper) was 7.5 µg/mmol and the “Urine sC5b-9” value (Patient E, Day 16 Taper) was 42 ng/mL. The sC5b-9/ALB (Patient E, Day 16 Taper) was 15 ng/mg, the sC5b-9/Cr (Patient E, Day 16 Taper) was 4.2 µg/mmol and the “Urine sC5b-9” value (Patient E, Day 17 Taper) was 74 ng/mL. The sC5b-9/ALB (Patient E, Day 17 Taper) was 20 ng/mg, the sC5b-9/Cr (Patient E, Day 17 Taper) was 9.4 µg/mmol and the “Urine sC5b-9” value (Patient E, Day 21 Taper) was 97 ng/mL. The sC5b-9/ALB (Patient E, Day 21 Taper) was 50 ng/mg, the sC5b-9/Cr (Patient E, Day 21 Taper) was 12.7 µg/mmol and the “Urine sC5b-9” value (Patient E, Follow-Up Day 24) was 188 ng/mL. The sC5b-9/ALB (Patient E, Follow-Up Day 24) was 50 ng/mg, the sC5b-9/Cr (Patient E, Follow-Up Day 24) was 15.1 µg/mmol and the “Urine sC5b-9” value (Patient E, Follow-Up Day 28) was 141 ng/mL. The sC5b-9/ALB (Patient E, Follow-Up Day 28) was 28 ng/mg, the sC5b-9/Cr (Patient E, Follow-Up Day 28) was 8.5 µg/mmol and the “Urine sC5b-9” value (Patient E, Follow-Up Day 49) was 217 ng/mL. The sC5b-9/ALB (Patient E, Follow-Up Day 49) was 42 ng/mg, the sC5b-9/ALB (Patient F, Day 1/0 Hour) was 120 ng/mg and the sC5b-9/Cr (Patient F, Day 1/0 Hour) was 35.2 µg/mmol. The “Urine sC5b-9” value (Patient F, Day 1 predose) was 348 ng/mL, the “Urine sC5b-9” value (Patient F, Day 4) was 43 ng/mL and the sC5b-9/ALB (Patient F, Day 4) was 58 ng/mg. The sC5b-9/Cr (Patient F, Day 4) was 8.8 µg/mmol, the “Urine sC5b-9” value (Patient F, Day 7) was 54 ng/mL and the sC5b-9/ALB (Patient F, Day 7/0 Hour) was 147 ng/mg. For the same molecule, the sC5b-9/Cr (Patient F, Day 7/0 Hour) was 13.9 µg/mmol, the “Urine sC5b-9” value (Patient F, Day 10) was 34 ng/mL and the “Urine sC5b-9” value (Patient F, Day 14) was 62 ng/mL. For the same molecule, the sC5b-9/ALB (Patient F, Day 14) was 37 ng/mg, the sC5b-9/Cr (Patient F, Day 14) was 6.7 µg/mmol and the “Urine sC5b-9” value (Patient F, Day 15 Taper) was 35 ng/mL. The sC5b-9/ALB (Patient F, Day 15 Taper) was 8 ng/mg, the sC5b-9/Cr (Patient F, Day 15 Taper) was 5.8 µg/mmol and the “Urine sC5b-9” value (Patient F, Day 16 Taper) was 25 ng/mL. For the same molecule, the sC5b-9/ALB (Patient F, Day 16 Taper) was 30 ng/mg, the sC5b-9/Cr (Patient F, Day 16 Taper) was 7.0 µg/mmol and the “Urine sC5b-9” value (Patient F, Day 17 Taper) was 55 ng/mL.
